The record followed here is US11541051B2, “Compositions and methods for treating CDK4/6-mediated cancer” (Icahn School of Medicine at Mount Sinai, priority 2016, dated 2023).

Type in all cases: cell-based
For experiment [1], the system named is CDK4/6. Nature of the experiment: Characterization of CDK4/6 degraders/disruptors in various breast cancer and melanoma cells (summary, Examples 12 and 13). How it is done:
Specific exemplary abemaciclib-, ribociclib-, and palbociclib-based CDK4/6 degraders/disruptors were characterized in various different breast cancer and melanoma cells (Examples 12 and 13, FIGS. 10-23). […] This efficacy in suppressing CDK4/6 expression and CDK4/6 activity correlated with efficacy in inhibiting cancer cell proliferation.
(§1) Protein concentrations were determined by BCA from cell lysates and equal amounts of protein are loaded to a Bis-Tris 4-12% gel. Gels were run at 80 V for 4 h using 1× running buffer (25 mM Tris, pH 8.3, […] glycine, 0.1% SDS). Proteins were transferred to a nitrocellulose membrane for 2 h at 100 V using transfer buffer (25 mM Tris, pH 8.3, […] glycine, 20% methanol). Ponceau S staining (0.1% Ponceau S, 1% acetic acid) was used to confirm transfer of proteins to the membrane followed by blocking of the membrane for 30 min at room temperature using blocking buffer (5% dry nonfat milk, 0.1% Tween, 0.02% sodium azide in TBS). The blocked membrane is incubated with primary antibodies (1:1000 dilution) in blocking buffer at 4° C. overnight. When primary phosphor-antibodies were used, then the membrane is incubated with 5% BSA instead of milk. The membrane was washed three times, 10 min each, with wash buffer (0.1% Tween in TBS) followed by incubation with secondary HRP conjugated antibody (1:5000 dilution) in 2.5% dry nonfat milk, 0.1% Tween in TBS for 1 h at room temperature. The membrane was washed three times, 10 min each, with wash buffer (0.1% Tween in TBS). Membranes are incubated with ECL for 1 min and proteins are detected after exposure to a blue autoradiographic film.

In a further experiment the test system is T47D breast cancer cells. Nature of the experiment: Crystal violet staining (clonogenic assay) of T47D breast cancer cells (Example 13, FIGS. 22, 23). The note with it: 11 days. How it is done:
Cells were cultured for 7-11 days in the presence of different compounds. Media with compound was replenished every two days. At the end of the experiment, media was aspirated and viable cells were stained with 0.5% crystal violet dye.

In experiment [2] the test system is CDK4/6. Nature of the experiment: Western blot of CDK4, CDK6 and phospho-Rb in A375 melanoma cells treated with degraders (Example 12, FIGS. 12, 13, 16, 18). Particulars: 1 or 3 μM, 24 h. How it is done: (§2) Breast cancer cell lines (MCF7, T47D, and ZR-75-1) and melanoma cell lines (A375, SK-MEL-2, SK-MEL-30, and WM1382) were cultured in the presence of DMEM or RPMI supplemented with 10% FBS in the presence of penicillin and streptomycin.
as §1
A375 melanoma cells (FIG. 13) were treated with 1 or 3 μM Ribociclib (RB), YX030-126, YX030-108, YX030-107, YX030-086, YX030-085 or XY028-133 for 24 h, then lysed and immunoblotted with antibodies to CDK4, CDK6, cyclin A, PLK1, phospho-Rb (pRb), and actin.
A375 melanoma cells (FIG. 16, panel A) were treated with 0.3 or 1 μM XY028-140, YX039-65, YX039-48, YX039-123, YX039-56, YX039-124 or YX039-147 for 24 h. A375 melanoma cells were treated with 1 or 3 μM XY028-140, YX039-56, YX039-65 or XY028-133 (FIG. 16, panel B). Cells were lysed and immunoblotted with antibodies to phospho-Rb (pRb), total Rb, PLK1, cyclin A, CDK4, CDK6, and actin.
A375 melanoma cells (FIG. 18) were treated with 1 or 3 μM XY028-133, YX044-18, YX044-22, XY028-140, YX044-19 or YX044-38 for 24 h, then lysed and immunoblotted with antibodies to phospho-Rb (pRb), total Rb, PLK1, cyclin A, CDK4, CDK6, and actin.
In general terms: A western blot detects proteins with antibodies after separation by electrophoresis.

Experiment [3] relates to CDK4/6. Nature of the experiment: Western blot of CDK4/6 and phospho-Rb in T47D breast cancer cells treated with degraders (Example 12, FIGS. 10 B, 17, 19). The note with it: 0.3 or 1 μM, 24 h. How it is done:
as §2, §1
MCF7 breast cancer cells were treated with 1 or 5 μM XY019-095, XY019-098, XY019-0100, XY019-105A, XY019-105B, XY019-106, or XY019-108 for 24 h, then lysed and immunoblotted with antibodies to CDK4, CDK6, and actin (FIG. 10, panel A). […] T47D breast cancer cells were treated with 0.1, 0.3, 1, 3, 10, or 30 μM XY019-106 for 24 h, then lysed and immunoblotted with antibodies to phospho-Rb (pRB), CDK4, and actin (FIG. 10, panel B).
T47D breast cancer cells (FIG. 17) were treated with 0.3 or 1 μM XY028-140, YX039-48, YX039-123, YX039-56, YX039-124, YX039-65, YX039-147 or YX039-74 for 24 h, then lysed and immunoblotted with antibodies to phospho-Rb (pRb), total Rb, PLK1, cyclin A, CDK4, CDK6, and actin.
T47D breast cancer cells (FIG. 19) were treated with 0.3 or 1 μM XY028-133, YX044-18, YX044-22, XY028-140, YX044-19 or YX044-38 for 24 h, then lysed and immunoblotted with antibodies to phospho-Rb (pRb), total Rb, PLK1, cyclin A, CDK4, CDK6, and actin.

`CC(=O)c1c(C)c2cnc(Nc3ccc(N4CCN(C(=O)CCCCC(=O)N[C@H](C(=O)N5C[C@H](O)C[C@H]5C(=O)NCc5ccc(-c6scnc6C)cc5)C(C)(C)C)CC4)cn3)nc2n(C2CCCC2)c1=O` [XY028-132, (2S,4R)-1-((S)-2-(6-(4-(6-((6-acetyl-8-cyclopentyl-5-methyl-7-oxo-7,8-dihydropyrido[2,3-d]pyrimidin-2-yl)amino)pyridin-3-yl)piperazin-1-yl)-6-oxohexanamido)-3,3-dimethylbutanoyl)-4-hydroxy-N-(4-(4-methylthiazol-5-yl)benzyl)pyrrolidine-2-carboxamide]: the “suppression of both CDK4/6 expression and CDK4/6 activity (summary)” value (shortened to “suppression”) in the experiment on CDK4/6 [1] is “especially effective in suppressing both CDK4/6 expression and CDK4/6 activity”.

As to `CC(=O)c1c(C)c2cnc(Nc3ccc(N4CCN(C(=O)CCCCCCNc5cccc6c5C(=O)N(C5CCC(=O)NC5=O)C6=O)CC4)cn3)nc2n(C2CCCC2)c1=O` (centres unmarked) [XY028-144, 4-((7-(4-(6-((6-acetyl-8-cyclopentyl-5-methyl-7-oxo-7,8-dihydropyrido[2,3-d]pyrimidin-2-yl)amino)pyridin-3-yl)piperazin-1-yl)-7-oxoheptyl)amino)-2-(2,6-dioxopiperidin-3-yl)isoindoline-1,3-dione], the “suppression” value in the experiment on CDK4/6 [1] is “especially effective in suppressing both CDK4/6 expression and CDK4/6 activity”.

On to `Cc1nc2c(F)cc(-c3nc(Nc4ccc(CN5CCN(C(=O)CCCCCCC(=O)Nc6cccc7c6C(=O)N(C6CCC(=O)NC6=O)C7=O)CC5)cn4)ncc3F)cc2n1C(C)C` (centres unmarked) [YX26-66, N-(2-(2,6-dioxopiperidin-3-yl)-1,3-dioxoisoindolin-4-yl)-8-(4-((6-((5-fluoro-4-(4-fluoro-1-isopropyl-2-methyl-1H-benzo[d]imidazol-6-yl)pyrimidin-2-yl)amino)pyridin-3-yl)methyl)piperazin-1-yl)-8-oxooctanamide], for which the “suppression” value in the experiment on CDK4/6 [1] is “especially effective in suppressing both CDK4/6 expression and CDK4/6 activity”.

For the compound `CC(=O)c1c(C)c2cnc(Nc3ccc(N4CCN(C(=O)COc5cccc6c5C(=O)N(C5CCC(=O)NC5=O)C6=O)CC4)cn3)nc2n(C2CCCC2)c1=O` (centres unmarked) [YX039-48, 4-(2-(4-(6-((6-acetyl-8-cyclopentyl-5-methyl-7-oxo-7,8-dihydropyrido[2,3-d]pyrimidin-2-yl)amino)pyridin-3-yl)piperazin-1-yl)-2-oxoethoxy)-2-(2,6-dioxopiperidin-3-yl)isoindoline-1,3-dione], in the experiment with CDK4/6 [1], the “suppression” value is “especially effective in suppressing both CDK4/6 expression and CDK4/6 activity”.

Regarding `CC(=O)c1c(C)c2cnc(Nc3ccc(N4CCN(C(=O)CCc5cccc6c5C(=O)N(C5CCC(=O)NC5=O)C6)CC4)cn3)nc2n(C2CCCC2)c1=O` (centres unmarked) [YX039-56, 3-(7-(3-(4-(6-((6-acetyl-8-cyclopentyl-5-methyl-7-oxo-7,8-dihydropyrido[2,3-d]pyrimidin-2-yl)amino)pyridin-3-yl)piperazin-1-yl)-3-oxopropyl)-1-oxoisoindolin-2-yl)piperidine-2,6-dione], the “suppression” value in the experiment on CDK4/6 [1] is “especially effective in suppressing both CDK4/6 expression and CDK4/6 activity”. Besides, the “inhibition of cancer cell proliferation compared with palbociclib (crystal violet staining)” value was “inhibited cancer cell proliferation more effective that palbociclib at the same concentration” with T47D breast cancer cells (0.003, 0.01 or 0.03 μM) and “inhibited cancer cell proliferation more effective that palbociclib at the same concentration” with T47D breast cancer cells (0.03, 0.1, 0.3, 1 or 3 μM).

With `CC(=O)c1c(C)c2cnc(Nc3ccc(N4CCN(C(=O)CNc5cccc6c5CN(C5CCC(=O)NC5=O)C6=O)CC4)cn3)nc2n(C2CCCC2)c1=O` (centres unmarked) [YX039-65, 3-(4-((2-(4-(6-((6-acetyl-8-cyclopentyl-5-methyl-7-oxo-7,8-dihydropyrido[2,3-d]pyrimidin-2-yl)amino)pyridin-3-yl)piperazin-1-yl)-2-oxoethyl)amino)-1-oxoisoindolin-2-yl)piperidine-2,6-dione], the “suppression” value with CDK4/6 [1] is “especially effective in suppressing both CDK4/6 expression and CDK4/6 activity”. Also, the “inhibition of cancer cell proliferation compared with palbociclib (crystal violet staining)” value with T47D breast cancer cells (0.003, 0.01 or 0.03 μM) was “inhibited cancer cell proliferation more effective that palbociclib at the same concentration”; in the experiment on T47D breast cancer cells (0.03, 0.1, 0.3, 1 or 3 μM), “inhibited cancer cell proliferation more effective that palbociclib at the same concentration”.

Regarding `CC(=O)c1c(C)c2cnc(Nc3ccc(N4CCN(C(=O)CCc5cccc6c5CN(C5CCC(=O)NC5=O)C6=O)CC4)cn3)nc2n(C2CCCC2)c1=O` (centres unmarked) [YX039-124, 3-(4-(3-(4-(6-((6-acetyl-8-cyclopentyl-5-methyl-7-oxo-7,8-dihydropyrido[2,3-d]pyrimidin-2-yl)amino)pyridin-3-yl)piperazin-1-yl)-3-oxopropyl)-1-oxoisoindolin-2-yl)piperidine-2,6-dione], the “suppression” value in the experiment on CDK4/6 [1] was “especially effective in suppressing both CDK4/6 expression and CDK4/6 activity”.

With `CC(=O)c1c(C)c2cnc(Nc3ccc(N4CCN(C(=O)CCc5cccc6c5C(=O)N(C5CCC(=O)NC5=O)C6=O)CC4)cn3)nc2n(C2CCCC2)c1=O` (centres unmarked) [YX039-147, 4-(3-(4-(6-((6-acetyl-8-cyclopentyl-5-methyl-7-oxo-7,8-dihydropyrido[2,3-d]pyrimidin-2-yl)amino)pyridin-3-yl)piperazin-1-yl)-3-oxopropyl)-2-(2,6-dioxopiperidin-3-yl)isoindoline-1,3-dione], the “suppression” value in the experiment with CDK4/6 [1] is “especially effective in suppressing both CDK4/6 expression and CDK4/6 activity”.

Turning to `CC(=O)c1c(C)c2cnc(Nc3ccc(N4CCCN(C(=O)CCCCCC(=O)N[C@H](C(=O)N5C[C@H](O)C[C@H]5C(=O)NCc5ccc(-c6scnc6C)cc5)C(C)(C)C)CC4)cn3)nc2n(C2CCCC2)c1=O` [YX044-18, (2S,4R)-1-((S)-2-(7-(4-(6-((6-acetyl-8-cyclopentyl-5-methyl-7-oxo-7,8-dihydropyrido[2,3-d]pyrimidin-2-yl)amino)pyridin-3-yl)-1,4-diazepan-1-yl)-7-oxoheptanamido)-3,3-dimethylbutanoyl)-4-hydroxy-N-(4-(4-methylthiazol-5-yl)benzyl)pyrrolidine-2-carboxamide], in the experiment on CDK4/6 [2], the “efficacy in inhibiting both CDK4/6 expression and CDK4/6 activity (decreased Rb phosphorylation)” value was “efficacy of CDK4/6 degraders, particularly XY028-133 and YX044-18”.

Regarding `CC(=O)c1c(C)c2cnc(Nc3ccc(N4CCCN(C(=O)CNc5cccc6c5C(=O)N(C5CCC(=O)NC5=O)C6=O)CC4)cn3)nc2n(C2CCCC2)c1=O` (centres unmarked) [YX044-19, 4-((2-(4-(6-((6-acetyl-8-cyclopentyl-5-methyl-7-oxo-7,8-dihydropyrido[2,3-d]pyrimidin-2-yl)amino)pyridin-3-yl)-1,4-diazepan-1-yl)-2-oxoethyl)amino)-2-(2,6-dioxopiperidin-3-yl)isoindoline-1,3-dione], the “efficacy in inhibiting both CDK4/6 expression and CDK4/6 activity (decreased Rb phosphorylation)” value in the experiment with CDK4/6 [3] is “efficacy of CDK4/6 degraders, particularly XY028-140 and YX044-22 and YX044-19”.
